Results on 4 compounds are retold here after US20250257055A1, “TERTIARY AMIDE DERIVATIVES SUBSTITUTED WITH 4-MEMBERED RING STRUCTURE” (Sumitomo Pharma Co., Ltd., priority 2024, published 2025).

Like-named read-outs stand apart in the source and are kept apart here.

One data set has as its target recombinant p300 (Homo sapiens (Human), UniProt Q09472). Description: HAT activity inhibition experiment (SensoLyte HAT(p300) Assay Kit). The note with it: recombinant p300, histone H3 peptide, acetyl CoA. In kind it is biochemical. The method, boiled down: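 Recombinant human p300 preincubated with compound 10 min at room temperature, then acetyl-CoA and histone H3 peptide added and reacted 30 min at 37 °C. After stop, developer added for 30 min at room temperature in the dark; fluorescence read at Ex 389/Em 513 nm.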

Data set [1] in a line: Membrane permeability test (PAMPA). In kind it is in vitro ADME. The method, boiled down:
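Donor compartment held compound in system solution over a GIT Lipid-0 membrane, with sink buffer on the acceptor side; incubation 4 h at 37° C. Donor and acceptor concentrations were read by UV (190-500 nm), or by LC-MS for weakly absorbing compounds, and Pe (10^−6 cm/sec) was calculated.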

Data set [2] is described as follows: Pharmacokinetic study in mice. In kind it is in vivo. To be noted: for AUC / clearance / half-life / Vd / Cmax: female, BALB/c (BALB/cAnN CrlCrlj), mouse, plasma; for Vd: read-out: Vdss. As for the experimental part:
The test compound was administered to 7-week-old female BALB/c (BALB/cAnN CrlCrlj) mice intravenously (dosage: 1 mg/kg) in a 50% PEG solution (0.01 mol/L HCl) or orally (dosage: 10 mg/kg) in a 0.5% methylcellulose aqueous solution, and blood was collected at the following times:
Intravenous administration: 5 min, 15 min, 30 min, 1 hr, 2 hr, 4 hr, 6 hr, and 24 hr after administration
Oral administration: 15 min, 30 min, 1 hr, 2 hr, 4 hr, 6 hr, and 24 hr after administration
The collected blood was centrifuged at 3000 rpm×10 min using a refrigerated centrifuge set at 4° C., and the obtained plasma was measured by LC-MS. A calibration curve was prepared from the value (peak ratio) obtained by dividing the peak area of the test substance by the peak area of the internal standard substance in MS and the concentration of the plasma calibration curve sample. The concentration in the sample was calculated from the peak ratio and the calibration curve of each sample.

The test system of a further data set is RMGI cells. In words: Cell proliferation inhibition experiment using RMGI cells. In kind it is cell-based. The note with it: Homo sapiens, RMG-I, 144 h, cultured for 6 days, CellTiter-Glo. As for the experimental part: RMGI cells (derived from ovarian cancer) were obtained from JCRB cell bank. RMGI cells were cultured in Ham's F12 medium containing 10% fetal bovine serum and 1% penicillin/streptomycin under conditions of 37° C. and 5% CO2.
200 cells per well were seeded in a 384-well plate. One day after seeding, Examples 3, 7, 9, 10, 11, 20, and 23 to 25 were added so that the final concentration of DMSO was 0.1%, and the cells were cultured for 6 days. After the culture was completed, the cell viability was measured using CellTiter-Glo Luminescent Cell Viability Assay (Promega, G7570).
On the technique in general: Cellular ATP, detected with luciferase, serves as a proxy for viable cell number.

The subject of another data set is Kuramochi cells. Description: Cell proliferation inhibition experiment using Kuramochi cells. It is filed as cell-based. To be noted: 144 h, cultured for 6 days, CellTiter-Glo. As for the experimental part: Kuramochi cells (derived from ovarian cancer) were obtained from JCRB (Japanese Collection of Research Bioresources) cell bank. Kuramochi cells were cultured in RPMI-1640 medium containing 10% fetal bovine serum and 1% penicillin/streptomycin under conditions of 37° C. and 5% CO2.
500 cells per well were seeded in a 384-well plate. One day after seeding, Examples 3, 7, 9, 10, 11, 20, 23 to 25, and 30 to 34 were added so that the final concentration of DMSO was 0.1%, and the cells were cultured for 6 days. After the culture was completed, the cell viability was measured using CellTiter-Glo Luminescent Cell Viability Assay (Promega, G7570).

In the next data set the test system is G-401 cells. Description: Cell proliferation inhibition experiment using G-401 cells. To be noted: Homo sapiens, 72 h, cultured for 3 days, CellTiter-Glo. It is filed as cell-based. The gist of the method:
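Malignant rhabdoid tumor-derived cells, grown in McCoy's 5A with 10% FBS, were seeded at 500 cells/well and dosed one day later (final DMSO 0.1%). After 3 days of culture at 37° C, viability was read by CellTiter-Glo luminescence.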

For a further data set, the target named is hSERT (Homo sapiens (Human), UniProt P31645). In words: Serotonin receptor inhibitory activity evaluation (binding assay, HEK293/hSERT membranes). To be noted: HEK293/hSERT membrane preparation, [3H]Paroxetin. How it is done: The binding evaluation assay was outsourced to Eurofins. Specifically, HEK293/hSERT cells were homogenized in a buffer consisting of 100 mmol/L NaCl, 1 μmol/L Leupeptin, 10 μmol/L PMSF, and 50 mmol/L Tris-HCl (pH7.4). The membrane pellet obtained by centrifugation was resuspended in an incubation buffer consisting of 50 mmol/L Tris-HCl (pH 7.4), 120 mmol/L NaCl, and 5 mmol/L KCl to prepare a membrane preparation. The test compound (1-10 μmol/L DMSO solution), the membrane preparation, and 0.4 nmol/L [^3H]Paroxetin were mixed and incubated at 25° C. for 60 minutes. The cell membrane-[^3H]Paroxetin complex was bound to a GF/B filter mat by vacuum filtration and washed with 50 mmol/L Tris-HCl (pH 7.4). The effect on the receptor was assessed by measuring radioactivity using a scintillation counter.

A further data set addresses hDAT (Homo sapiens (Human), UniProt Q01959). Description: Dopamine receptor inhibitory activity evaluation (binding assay, CHO-S/hDAT membranes). To be noted: CHO-S/hDAT membrane preparation. How it is done:
The binding evaluation assay was outsourced to Eurofins. Specifically, CHO-S/hDAT cells were homogenized in an incubation buffer consisting of 50 mmol/L Tris-HCl, pH 7.4, 100 mmol/L NaCl, 1 μmol/L Leupeptin, and 10 μmol/L PMSF. The membrane pellet obtained by centrifugation was resuspended in the incubation buffer to prepare a membrane preparation. The test compound (1-10 μmol/L DMSO solution), the membrane preparation, and 0.15 nmol/L […] were mixed and incubated at 4° C. for 180 minutes. The cell membrane-[^125I]RTI-55 complex was bound to a GF/B filter mat by vacuum filtration and washed with 50 mmol/L Tris-HCl, pH 7.4. The effect on the receptor was assessed by measuring radioactivity using a scintillation counter.

The mark [3] stands for this setting: pH 5.0, 37° C., read-out: pH 5.0 Pe.
[4] abbreviates: pH 7.4, 37° C., read-out: pH 7.4 Pe.

By IC50 is commonly meant the concentration needed to halve the response being measured. The term AUC denotes the area under the concentration-time curve, a measure of exposure. A lower AUC goes with low exposure. The clearance is a measure of how efficiently the substance is removed, as volume per time. In general, half-life refers to the time needed for the level to fall by half in the phase considered. A high value points to slow loss. Broadly, the Cmax is the maximum level reached in the sampled fluid or tissue. The term inhibition denotes the share of the control response that was lost under treatment.

recombinant p300, sequence (Q09472 whole entry): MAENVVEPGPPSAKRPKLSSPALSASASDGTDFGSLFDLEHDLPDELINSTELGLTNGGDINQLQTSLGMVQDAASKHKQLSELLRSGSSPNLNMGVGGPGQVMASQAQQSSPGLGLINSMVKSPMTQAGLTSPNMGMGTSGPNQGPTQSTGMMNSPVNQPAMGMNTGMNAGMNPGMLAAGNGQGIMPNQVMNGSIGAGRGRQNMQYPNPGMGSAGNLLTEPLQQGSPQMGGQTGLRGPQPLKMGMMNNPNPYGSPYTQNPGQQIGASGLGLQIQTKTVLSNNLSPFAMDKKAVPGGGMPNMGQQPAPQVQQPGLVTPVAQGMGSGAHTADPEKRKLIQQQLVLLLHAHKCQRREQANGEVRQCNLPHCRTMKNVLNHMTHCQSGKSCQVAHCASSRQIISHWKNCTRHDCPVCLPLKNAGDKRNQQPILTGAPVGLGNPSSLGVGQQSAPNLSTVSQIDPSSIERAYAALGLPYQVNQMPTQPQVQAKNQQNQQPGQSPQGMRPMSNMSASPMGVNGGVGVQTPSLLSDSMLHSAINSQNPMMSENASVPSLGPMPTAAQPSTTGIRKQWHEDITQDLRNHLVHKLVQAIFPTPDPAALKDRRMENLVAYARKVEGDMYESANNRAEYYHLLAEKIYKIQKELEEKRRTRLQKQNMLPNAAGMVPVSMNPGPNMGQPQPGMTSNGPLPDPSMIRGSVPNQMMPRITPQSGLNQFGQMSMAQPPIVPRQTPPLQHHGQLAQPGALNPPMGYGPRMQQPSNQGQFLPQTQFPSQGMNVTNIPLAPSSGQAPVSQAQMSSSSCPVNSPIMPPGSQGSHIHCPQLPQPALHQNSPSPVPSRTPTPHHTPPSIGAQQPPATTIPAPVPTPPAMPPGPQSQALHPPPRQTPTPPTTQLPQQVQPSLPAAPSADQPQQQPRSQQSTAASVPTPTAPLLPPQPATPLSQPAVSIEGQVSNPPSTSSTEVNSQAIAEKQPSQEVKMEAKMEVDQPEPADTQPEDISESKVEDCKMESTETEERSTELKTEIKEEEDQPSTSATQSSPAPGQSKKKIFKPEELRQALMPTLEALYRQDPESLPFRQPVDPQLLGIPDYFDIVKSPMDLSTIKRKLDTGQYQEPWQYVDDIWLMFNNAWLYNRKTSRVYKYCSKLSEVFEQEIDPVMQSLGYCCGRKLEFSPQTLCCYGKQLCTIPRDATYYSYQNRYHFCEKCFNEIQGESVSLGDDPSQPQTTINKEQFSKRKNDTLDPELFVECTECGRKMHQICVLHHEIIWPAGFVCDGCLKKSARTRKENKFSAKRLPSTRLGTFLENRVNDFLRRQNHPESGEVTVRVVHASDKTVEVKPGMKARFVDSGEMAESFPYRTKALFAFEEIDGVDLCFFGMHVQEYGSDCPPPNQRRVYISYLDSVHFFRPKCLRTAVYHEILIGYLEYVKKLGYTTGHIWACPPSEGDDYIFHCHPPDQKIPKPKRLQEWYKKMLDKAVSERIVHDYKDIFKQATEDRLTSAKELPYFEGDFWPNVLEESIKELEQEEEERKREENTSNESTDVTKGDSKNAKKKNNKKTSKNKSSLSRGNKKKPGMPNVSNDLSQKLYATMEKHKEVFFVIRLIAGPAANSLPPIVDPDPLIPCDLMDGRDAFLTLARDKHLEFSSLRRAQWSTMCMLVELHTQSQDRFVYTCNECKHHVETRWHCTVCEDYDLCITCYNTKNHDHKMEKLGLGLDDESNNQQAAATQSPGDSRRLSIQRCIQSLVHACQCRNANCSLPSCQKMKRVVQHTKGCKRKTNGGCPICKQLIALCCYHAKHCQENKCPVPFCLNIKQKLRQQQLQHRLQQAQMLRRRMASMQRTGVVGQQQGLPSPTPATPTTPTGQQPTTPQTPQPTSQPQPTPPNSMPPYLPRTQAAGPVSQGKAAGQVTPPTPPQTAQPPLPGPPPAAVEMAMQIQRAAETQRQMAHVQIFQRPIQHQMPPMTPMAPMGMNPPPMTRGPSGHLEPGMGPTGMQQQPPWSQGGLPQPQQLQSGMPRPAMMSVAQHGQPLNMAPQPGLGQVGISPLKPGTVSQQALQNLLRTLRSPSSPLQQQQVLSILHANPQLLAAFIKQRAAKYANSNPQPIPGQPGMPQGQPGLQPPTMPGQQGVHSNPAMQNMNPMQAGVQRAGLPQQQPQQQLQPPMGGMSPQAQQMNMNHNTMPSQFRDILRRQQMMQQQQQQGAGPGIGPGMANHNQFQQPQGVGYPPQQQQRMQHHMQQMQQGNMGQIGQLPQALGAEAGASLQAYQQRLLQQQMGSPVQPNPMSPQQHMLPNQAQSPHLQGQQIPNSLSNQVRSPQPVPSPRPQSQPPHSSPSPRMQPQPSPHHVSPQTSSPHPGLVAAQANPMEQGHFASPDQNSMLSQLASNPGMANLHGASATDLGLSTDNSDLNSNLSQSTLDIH
hSERT, sequence (P31645 whole entry): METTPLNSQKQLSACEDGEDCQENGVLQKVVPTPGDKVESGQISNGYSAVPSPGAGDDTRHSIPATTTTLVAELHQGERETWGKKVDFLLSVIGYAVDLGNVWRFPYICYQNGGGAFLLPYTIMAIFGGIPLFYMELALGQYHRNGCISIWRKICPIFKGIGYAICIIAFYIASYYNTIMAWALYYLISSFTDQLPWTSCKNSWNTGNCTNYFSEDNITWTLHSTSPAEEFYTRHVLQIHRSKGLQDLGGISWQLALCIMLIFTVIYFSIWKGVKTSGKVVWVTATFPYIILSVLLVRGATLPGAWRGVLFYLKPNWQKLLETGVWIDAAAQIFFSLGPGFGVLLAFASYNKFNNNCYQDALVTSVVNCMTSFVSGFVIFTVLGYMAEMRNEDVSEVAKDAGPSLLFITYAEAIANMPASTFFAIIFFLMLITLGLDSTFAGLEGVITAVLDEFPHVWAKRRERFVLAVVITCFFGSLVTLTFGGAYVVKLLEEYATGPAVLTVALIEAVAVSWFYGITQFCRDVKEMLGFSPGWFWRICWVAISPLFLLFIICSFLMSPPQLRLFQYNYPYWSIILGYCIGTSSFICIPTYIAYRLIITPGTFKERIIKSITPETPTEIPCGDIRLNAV
hDAT, sequence (Q01959 whole entry): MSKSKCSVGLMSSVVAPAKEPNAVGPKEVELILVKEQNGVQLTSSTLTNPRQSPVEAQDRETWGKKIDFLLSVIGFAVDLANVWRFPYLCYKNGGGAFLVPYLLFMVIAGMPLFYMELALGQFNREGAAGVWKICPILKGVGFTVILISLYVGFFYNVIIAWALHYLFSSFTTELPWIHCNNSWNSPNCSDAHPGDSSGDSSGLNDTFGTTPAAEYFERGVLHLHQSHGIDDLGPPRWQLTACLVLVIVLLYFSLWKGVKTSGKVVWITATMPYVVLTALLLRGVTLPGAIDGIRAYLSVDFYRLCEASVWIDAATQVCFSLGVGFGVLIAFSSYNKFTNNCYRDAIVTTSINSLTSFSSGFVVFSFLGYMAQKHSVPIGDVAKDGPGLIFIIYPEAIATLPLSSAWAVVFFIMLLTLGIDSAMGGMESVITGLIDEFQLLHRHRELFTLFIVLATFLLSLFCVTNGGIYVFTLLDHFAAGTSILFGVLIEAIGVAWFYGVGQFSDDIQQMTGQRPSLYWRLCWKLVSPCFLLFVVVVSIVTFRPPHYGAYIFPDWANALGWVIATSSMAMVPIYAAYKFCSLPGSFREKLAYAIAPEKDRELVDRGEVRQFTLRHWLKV

With `CN1CC(N(Cc2ccc(F)cc2)C(=O)CN2C(=O)N[C@]3(C[C@@H](F)c4cc(-c5cnn(C(C)(C)C#N)c5)ccc43)C2=O)(C(F)(F)F)C1` [Example 11, 2-{(1′S,3′R)-5′-[1-(2-cyanopropan-2-yl)-1H-pyrazol-4-yl]-3′-fluoro-2,5-dioxo-2′,3′-dihydrospiro[imidazolidine-4,1′-inden]-1-yl}-N-[(4-fluorophenyl)methyl]-N-[1-methyl-3-(trifluoromethyl)azetidin-3-yl]acetamide], the half-inhibitory concentration (IC50) on recombinant p300 worked out at 2.1 nM. In addition, the Papp at 4 h in data set [1] (setting [3]) amounted to 24.1 ×10⁻⁶ cm/s. The Papp at 4 h in data set [1] (setting [4]) was determined as 27.2 ×10⁻⁶ cm/s. Besides, in data set [2] (intravenous, 1 mg/kg), the exposure (AUC) was 446 ng·h/mL, the clearance is 33.7 mL/min/kg, the half-life is 2.12 h and the Vd amounted to 4.1 L/kg. In data set [2] (oral, 10 mg/kg), this compound yielded an AUC of 2500 ng·h/mL, a Cmax of 1720 ng/mL and a BA of 56.2%. Further, half-maximal inhibition in the data set on RMGI cells (IC50) was put at 5 nM. In addition, in the data set with Kuramochi cells, inhibition was half-maximal at 48 nM (IC50). This compound also returned an IC50 in the data set with G-401 cells of 10 nM.

In the case of `O=C1N[C@]2(C[C@@H](F)c3cc(-c4cnn(C5CN(C6COC6)C5)c4)ccc32)C(=O)N1CC(=O)N(Cc1ccc(F)cc1)C1(C(F)(F)F)COC1` [Example 3, 2-[(1′S,3′R)-3′-fluoro-5′-{1-[1-(oxetan-3-yl)azetidin-3-yl]-1H-pyrazol-4-yl}-2,5-dioxo-2′,3′-dihydrospiro[imidazolidine-4,1′-inden]-1-yl]-N-[(4-fluorophenyl)methyl]-N-[3-(trifluoromethyl)oxetan-3-yl]acetamide], the IC50 at recombinant p300 was 0.6 nM. Moreover, in data set [1] (setting [3]), the Papp at 4 h worked out at 14.9 ×10⁻⁶ cm/s. In addition, the Papp at 4 h in data set [1] (setting [4]) stood at 17.7 ×10⁻⁶ cm/s. Moreover, in data set [2] (intravenous, 1 mg/kg), the AUC is 764 ng·h/mL, the clearance is 20.6 mL/min/kg, the half-life was 1.8 h and the Vd worked out at 2 L/kg. Further, in data set [2] (oral, 10 mg/kg), the AUC amounted to 3890 ng·h/mL, the Cmax was determined as 2670 ng/mL and the BA was found to be 50.9%. In the data set on RMGI cells, this compound had an IC50 of 18 nM. The same compound had an IC50 in the data set on Kuramochi cells of 91 nM. Besides, the IC50 in the data set on G-401 cells stood at 44 nM.

`CN1CC(N(Cc2ccc(F)cn2)C(=O)CN2C(=O)N[C@]3(C[C@@H](F)c4cc(-c5cnn(CC6COC6)c5)ccc43)C2=O)(C(F)(F)F)C1` [Example 25, 2-[(1′S,3′R)-3′-fluoro-5′-{1-[(oxetan-3-yl)methyl]-1H-pyrazol-4-yl}-2,5-dioxo-2′,3′-dihydrospiro[imidazolidine-4,1′-inden]-1-yl]-N-[(5-fluoropyridin-2-yl)methyl]-N-[1-methyl-3-(trifluoromethyl)azetidin-3-yl]acetamide]: the half-inhibitory concentration (IC50) at recombinant p300 stood at 5.7 nM; in the data set with RMGI cells, 41 nM; in the data set on Kuramochi cells, 424 nM; in the data set with G-401 cells, 59 nM. In addition, the Papp at 4 h was 1 ×10⁻⁶ cm/s in data set [1] (setting [3]) and 6.1 ×10⁻⁶ cm/s in data set [1] (setting [4]). The area under the curve (AUC) in data set [2] (intravenous, 1 mg/kg) amounted to 672 ng·h/mL; in data set [2] (oral, 10 mg/kg) it was 1310 ng·h/mL. This compound had a peak concentration (Cmax) in data set [2] (oral, 10 mg/kg) of 1630 ng/mL. The same compound gave a BA in data set [2] (oral, 10 mg/kg) of 19.6%. Also, the inhibition at 10 µM at hSERT was 2%; at hDAT it was 9%.

`O=C1N[C@]2(C[C@@H](F)c3cc(-c4cnn(C5CN(C6COC6)C5)c4)ccc32)C(=O)N1CC(=O)N(Cc1ccc(F)cn1)C1(C(F)(F)F)CC(F)(F)C1` [Example 9, N-[3,3-difluoro-1-(trifluoromethyl)cyclobutyl]-2-[(1′S,3′R)-3′-fluoro-5′-{1-[1-(oxetan-3-yl)azetidin-3-yl]-1H-pyrazol-4-yl}-2,5-dioxo-2′,3′-dihydrospiro[imidazolidine-4,1′-inden]-1-yl]-N-[(5-fluoropyridin-2-yl)methyl]acetamide]: in data set [1] (setting [3]), the Papp at 4 h is 13.3 ×10⁻⁶ cm/s. In addition, in data set [1] (setting [4]), the Papp at 4 h is 15.3 ×10⁻⁶ cm/s. Besides, in data set [2] (intravenous, 1 mg/kg), the area under the curve (AUC) came to 1200 ng·h/mL, the clearance turned out to be 11.9 mL/min/kg, the half-life was 2.43 h and the Vd came out at 2 L/kg. Besides, in data set [2] (oral, 10 mg/kg), the AUC is 13100 ng·h/mL, the Cmax was 5370 ng/mL and the BA was determined as 109.1%. In the data set on RMGI cells, this compound returned an IC50 of 24 nM. In addition, 184 nM corresponded to half-maximal inhibition in the data set with Kuramochi cells (IC50). The compound further returned an IC50 with G-401 cells of 38 nM.
